Tests used:
Format in all cases: functional
Conditions in all cases: read-out: IZ
Bacillus subtilis = experiment: Antibacterial activity against Bacillus subtilis at 500 ppm
Escherichia coli = experiment: Antibacterial activity against Escherichia coli at 500 ppm
Aspergillus fumigatus = experiment: Antifungal activity against Aspergillus fumigatus at 500 ppm
Candida albicans = experiment: Antifungal activity against Candida albicans at 500 ppm
Pseudomonas aeruginosa = experiment: Antibacterial activity against Pseudomonas aeruginosa at 500 ppm
Proteus mirabilis = experiment: Antibacterial activity against Proteus mirabilis at 500 ppm

Row | Structure (SMILES) | zone of inhibition at 500 ppm (Bacillus subtilis) | zone of inhibition at 500 ppm (Escherichia coli) | zone of inhibition at 500 ppm (Aspergillus fumigatus) | zone of inhibition at 500 ppm (Candida albicans) | zone of inhibition at 500 ppm (Pseudomonas aeruginosa) | zone of inhibition at 500 ppm (Proteus mirabilis)
1 | O=C1c2ccccc2C(=O)N1OCCN1N=C2C(SC3=NC(c4ccccc4)(c4ccccc4)C(=O)N32)C1c1ccc(Cl)cc1 (stereo unspecified) | 4 mm | 11 mm | 6 mm | 20 mm | 9 mm | 5 mm
2 | O=C1c2ccccc2C(=O)N1OCCN1N=C2C(SC3=NC(c4ccccc4)(c4ccccc4)C(=O)N32)C1c1ccccc1 (stereo unspecified) | 9 mm | 12 mm | 4 mm | 19 mm | 14 mm | 3 mm
3 | O=C1c2ccccc2C(=O)N1OCCN1N=C2C(SC3=NC(c4ccccc4)(c4ccccc4)C(=O)N32)C1c1ccc(F)cc1 (stereo unspecified) | 6 mm | 12 mm | 5 mm | 20 mm | 11 mm | 8 mm
4 | COc1ccc(C2C3SC4=NC(c5ccccc5)(c5ccccc5)C(=O)N4C3=NN2CCON2C(=O)c3ccccc3C2=O)cc1 (stereo unspecified) | 11 mm | 9 mm | 3 mm | 18 mm | 17 mm | 6 mm
5 | CN(C)c1ccc(C2C3SC4=NC(c5ccccc5)(c5ccccc5)C(=O)N4C3=NN2CCON2C(=O)c3ccccc3C2=O)cc1 (stereo unspecified) | 7 mm | 10 mm | 2 mm | 17 mm | 10 mm | 5 mm
6 | O=C1c2ccccc2C(=O)N1OCCNc1nc(-c2ccc(Cl)cc2)c2c(n1)N1C(=O)C(c3ccccc3)(c3ccccc3)N=C1S2 | 5 mm | 13 mm | 6 mm | 11 mm | 13 mm | 4 mm
7 | O=C1c2ccccc2C(=O)N1OCCNc1nc(-c2ccccc2)c2c(n1)N1C(=O)C(c3ccccc3)(c3ccccc3)N=C1S2 | 7 mm | 18 mm | 2 mm | 26 mm | 14 mm | 10 mm
8 | O=C1c2ccccc2C(=O)N1OCCNc1nc(-c2ccc(F)cc2)c2c(n1)N1C(=O)C(c3ccccc3)(c3ccccc3)N=C1S2 | 13 mm | 13 mm | 4 mm | 23 mm | 21 mm | 8 mm
9 | COc1ccc(-c2nc(NCCON3C(=O)c4ccccc4C3=O)nc3c2SC2=NC(c4ccccc4)(c4ccccc4)C(=O)N23)cc1 | 12 mm | 11 mm | 5 mm | 21 mm | 12 mm | 6 mm
10 | CN(C)c1ccc(-c2nc(NCCON3C(=O)c4ccccc4C3=O)nc3c2SC2=NC(c4ccccc4)(c4ccccc4)C(=O)N23)cc1 | 10 mm | 15 mm | 8 mm | 19 mm | 11 mm | 7 mm
11 | C[C@@H]1[C@H](O)[C@@H](C)/C=C/C=C/C=C/C=C/C=C/C=C/C=C/[C@H](O[C@@H]2O[C@H](C)[C@@H](O)[C@H](N)[C@@H]2O)C[C@@H]2O[C@](O)(C[C@@H](O)C[C@@H](O)[C@H](O)CC[C@@H](O)C[C@@H](O)CC(=O)O[C@H]1C)C[C@H](O)[C@H]2C(=O)O [AMPHOTERICIN B] |  |  | 10 mm | 17 mm |  | 
12 | O=C(O)c1cn(C2CC2)c2cc(N3CCNCC3)c(F)cc2c1=O [CIPROFLOXACIN] | 17 mm | 16 mm |  |  | 18 mm | 16 mm
